One experiment concerns the target T1, CCKA (Cavia porcellus, UniProt Q63931).
T1 construct: The pancreatata were removed from male guinea-pigs (200-300g; Dunkin Hartley); from tissue; host or cells: pancreas membranes of male Dunkin Hartley guinea-pigs
T1 sequence (Q63931 1-430): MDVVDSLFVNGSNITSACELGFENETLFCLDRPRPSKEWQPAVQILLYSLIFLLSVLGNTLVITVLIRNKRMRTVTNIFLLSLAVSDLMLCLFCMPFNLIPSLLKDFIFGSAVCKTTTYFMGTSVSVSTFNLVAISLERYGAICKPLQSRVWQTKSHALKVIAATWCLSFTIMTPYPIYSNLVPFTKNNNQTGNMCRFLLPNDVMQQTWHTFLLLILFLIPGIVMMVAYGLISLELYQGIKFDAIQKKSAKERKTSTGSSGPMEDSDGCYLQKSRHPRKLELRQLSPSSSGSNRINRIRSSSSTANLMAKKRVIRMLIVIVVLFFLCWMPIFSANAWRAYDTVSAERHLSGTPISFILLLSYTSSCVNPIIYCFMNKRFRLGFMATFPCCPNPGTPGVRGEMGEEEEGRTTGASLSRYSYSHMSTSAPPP
The experiment can be described thus: CCKA binding assay in guinea-pig pancreas membranes. Conditions: [125I]-CCK8(S) 200pM; for Ki: containing 0.375 µM PD134,308, read-out: CCKA pKi (converted); for CCKA pKi: containing 0.375 µM PD134,308. Put shortly: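 Competition binding of [125I]-CCK8(S) (200 pM in the added solution) to male guinea-pig pancreas membranes (1 mg/ml wet weight) containing 0.375 µM PD134,308, in HEPES buffer pH 7.2. Incubated 150 min at 21 ± 3°, then filtered. Bound radioactivity gamma-counted; non-specific binding defined with 100nM L-364,718.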

The target of the next experiment is T2, CCKB receptor (Mus musculus, UniProt P56481).
T2 construct: The whole brains from male mice (CD1 22-25g; Charles River) were removed; from tissue; host or cells: cerebral cortex membranes of male CD1 mice
T2 sequence (P56481 1-453): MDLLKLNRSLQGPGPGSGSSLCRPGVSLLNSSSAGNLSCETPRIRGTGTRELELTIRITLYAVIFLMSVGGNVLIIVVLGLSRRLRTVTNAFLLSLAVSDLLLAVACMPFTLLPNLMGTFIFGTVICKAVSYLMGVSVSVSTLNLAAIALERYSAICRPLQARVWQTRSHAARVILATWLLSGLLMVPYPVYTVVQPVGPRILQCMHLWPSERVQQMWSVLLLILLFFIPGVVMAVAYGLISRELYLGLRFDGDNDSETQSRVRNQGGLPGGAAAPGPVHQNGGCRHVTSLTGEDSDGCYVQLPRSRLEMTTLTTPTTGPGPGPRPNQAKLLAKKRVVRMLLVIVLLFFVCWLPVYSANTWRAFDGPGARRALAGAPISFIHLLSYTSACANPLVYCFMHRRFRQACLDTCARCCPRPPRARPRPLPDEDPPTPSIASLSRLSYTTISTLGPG
The experiment is described as follows: radioligand binding assay at the CCKB receptor in mouse cortical membranes. To be noted: [125I]-CCK8S 200pM, 150 min at 21 ± 3°C; for Ki: read-out: CCKB pKi (converted). An outline of the steps:
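Radioligand binding was quantified by gamma counting after filtration through GF/B filters and cold 50 mM Tris-HCl (pH 7.4) washes. Tissue source was male CD1 mouse cortex, homogenised and twice centrifuged, then resuspended at 2 mg.ml^-1 original wet weight in pH 7.2 HEPES buffer containing bacitracin.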

The next experiment concerns the target T3, gastrin (Rattus norvegicus, UniProt P30553).
T3 construct: The stomach was excised and flushed with ca. 1 ml of unbuffered physiological saline solution; from tissue; host or cells: isolated whole stomach of immature rats (33-50 g, ca. 21 days old)
T3 sequence (P30553 1-452): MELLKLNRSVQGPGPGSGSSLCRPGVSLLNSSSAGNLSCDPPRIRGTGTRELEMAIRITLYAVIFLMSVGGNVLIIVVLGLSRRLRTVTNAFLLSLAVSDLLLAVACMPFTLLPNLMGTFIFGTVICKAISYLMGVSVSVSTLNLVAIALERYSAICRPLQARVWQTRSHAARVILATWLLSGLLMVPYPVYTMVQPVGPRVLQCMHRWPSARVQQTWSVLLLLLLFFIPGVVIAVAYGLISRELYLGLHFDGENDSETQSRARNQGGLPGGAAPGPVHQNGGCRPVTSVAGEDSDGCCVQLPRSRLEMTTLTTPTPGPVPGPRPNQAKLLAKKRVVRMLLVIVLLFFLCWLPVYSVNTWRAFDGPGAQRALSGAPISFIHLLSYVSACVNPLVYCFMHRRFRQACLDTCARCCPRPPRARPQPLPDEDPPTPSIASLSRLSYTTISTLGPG
The experiment can be described thus: gastrin antagonist activity in an immature rat stomach assay. Conditions: isolated immature rat stomach, cumulative pentagastrin dose-response curves, acid secretion; for Kb: read-out: Gastrin pKB (converted); for Gastrin pKB: 60 min. An outline of the steps:
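Isolated stomachs from immature rats (33-50 g, ca. 21 days) perfused at 1 ml min^-1 with O2-gassed unbuffered saline, perfusate pH monitored by electrode. After 120 min stabilisation, compounds added to serosal bath; cumulative pentagastrin dose-response curves begun 60 min later.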

Molecules are shown by their SMILES.

On to `CC(C)(NC(=O)C1C2c3ccccc3C(c3ccccc32)C1C(=O)N[C@@H](Cc1ccccc1)C(=O)Nc1cc(C(=O)O)cc(C(=O)O)c1)C12CC3CC(CC(C3)C1)C2` (stereo partly drawn) [Example 49, cis-7-(1S-(3,5-dicarboxyphenylaminocarbonyl)-2-phenylethylaminocarbonyl)-8-(1-(1-adamantane)-1-methyl-ethylaminocarbonyl) -2,3,5,6-dibenzobicyclo[2.2.2]octane], for which the Ki on CCKA is 2510 nM; at CCKB receptor, 63.1 nM. The Kb on gastrin was 10 nM.
For the molecule `O=C(O)c1cc(NC(=O)[C@H](Cc2ccc(F)cc2)NC(=O)C2C3c4ccccc4C(c4ccccc43)C2C(=O)NCC23CC4CC(CC(C4)C2)C3)cc(C(=O)O)c1` (single isomer, unassigned) [Example 8, cis-7-(1S-(3,5-dicarboxyphenylaminocarbonyl) -2-(4-fluorophenyl)-ethylaminocarbonyl)-8-(1-adamantane-methylaminocarbonyl)-2,3,5,6-dibenzobicyclo[2.2.2]octane], the Ki is 1000 nM at CCKA and 12.6 nM at CCKB receptor. The Kb at gastrin was 7.94 nM.
In the case of `O=C(O)c1cc(NC(=O)[C@H](Cc2ccc3ccccc3c2)NC(=O)C2C3c4ccccc4C(c4ccccc43)C2C(=O)NCC23CC4CC(CC(C4)C2)C3)cc(C(=O)O)c1` (single isomer, unassigned) [Example 14, cis-7-(1S-(3,5-dicarboxyphenylaminocarbonyl)-2-(2-naphthyl) -ethylaminocarbonyl)-8-(1-adamantanemethylaminocarbonyl)-2,3,5,6-dibenzobicyclo[2.2.2]octane], the “CCKA pKi” value at CCKA stood at 6.1. The “CCKB pKi” value at CCKB receptor is recorded as 6.5. For the same molecule, at gastrin, the “Gastrin pKB” value was found to be 6.9.
In the case of `O=C(O)c1cccc(NC(=O)[C@H](Cc2ccccc2)NC(=O)C2C3c4ccccc4C(c4ccccc43)C2C(=O)NCC23CC4CC(CC(C4)C2)C3)c1` (single isomer, unassigned) [Example 41, cis-7-(1S-(3-carboxyphenylaminocarbonyl)-2-phenylethylaminocarbonyl)-8-(1-adamantanemethylaminocarbonyl)-2,3,5,6-dibenzobicyclo[2.2.2]octane], the “CCKA pKi” value at CCKA worked out at 6.0. The Ki on CCKB receptor was 158 nM. Also, the “Gastrin pKB” value on gastrin came to 5.7.
For `O=C(O)c1cc(NC(=O)[C@H](Cc2ccccc2)NC(=O)C2C3c4ccccc4C(c4ccccc43)C2C(=O)NCC2CCCCC2)cc(C(=O)O)c1` (single isomer, unassigned) [Example 30, cis-7-(1S-(3,5-dicarboxyphenylaminocarbonyl)-2-phenylethylaminocarbonyl)-8-(1-cyclohexanemethylaminocarbonyl)-2,3,5,6-dibenzobicyclo [2.2.2] octane], the results for the Ki at CCKA and at CCKB receptor were 3980 nM and 20 nM, respectively. Moreover, the Kb on gastrin was 50.1 nM.
For `O=C(O)c1cc(NC(=O)[C@H](CC2CCCCC2)NC(=O)C2C3c4ccccc4C(c4ccccc43)C2C(=O)NCC23CC4CC(CC(C4)C2)C3)cc(C(=O)O)c1` (stereo partly drawn) [Example 5, cis-7-(1S-(3,5-dicarboxyphenylaminocarbonyl) -2-cyclohexylethylaminocarbonyl)-8-(1-adamantanemethylaminocarbonyl) -2,3,5,6-dibenzobicyclo[2.2.2]octane], the values for the Ki at CCKA and at CCKB receptor were 1000 nM and 25.1 nM, respectively. Moreover, at gastrin, the Kb is 316 nM.
`O=C(O)c1cc(NC(=O)[C@H](Cc2ccccc2)NC(=O)C2C3c4ccccc4C(c4ccccc43)C2C(=O)NCc2ccc3ccccc3c2)cc(C(=O)O)c1` (single isomer, unassigned) [Example 63, cis-7-(1S-(3,5-dicarboxyphenylaminocarbonyl) -2-phenylethylaminocarbonyl)-8-(2-naphthalenemethylaminocarbonyl) -2,3,5,6-dibenzobicyclo[2.2.2]octane]: the Ki on CCKA was 1580 nM; on CCKB receptor it was 2.51 nM. Also, the Kb at gastrin was 39.8 nM.
Regarding `O=C(O)c1cc(NC(=O)[C@H](Cc2ccccc2)NC(=O)C2C3c4ccccc4C(c4ccccc43)C2C(=O)NCc2ccc(Cl)c(Cl)c2)cc(C(=O)O)c1` (single isomer, unassigned) [Example 35, cis-7-(1S-(3,5-dicarboxyphenylaminocarbonyl)-2-phenylethylaminocarbonyl) -8-(3,4-dichlorophenyl-methylaminocarbonyl) -2,3,5,6-dibenzobicyclo[2.2.2]octane], the Ki at CCKA is 1260 nM; at CCKB receptor, 158 nM. The Kb at gastrin is 1000 nM.
Regarding `O=C(O)c1cc(NC(=O)[C@H](Cc2ccccc2)NC(=O)C2C3c4ccccc4C(c4ccccc43)C2C(=O)NCc2ccc(Cl)c(Cl)c2)cc(C(=O)O)c1` (single isomer, unassigned) [Example 34, cis-7-(1S-(3,5-dicarboxyphenylaminocarbonyl) -2-phenylethylaminocarbonyl) -8-(3,4-dichlorophenyl-methylaminocarbonyl) -2,3,5,6-dibenzobicyclo[2.2.2]octane], the Ki is 251 nM on CCKA and 39.8 nM on CCKB receptor. Besides, on gastrin, the Kb is 316 nM.
With `O=C(O)c1cc(NC(=O)[C@@H](Cc2ccccc2)NC(=O)C2C3c4ccccc4C(c4ccccc43)C2C(=O)NCC23CC4CC(CC(C4)C2)C3)cc(C(=O)O)c1` (single isomer, unassigned) [Example 3, cis-7-(1R-(3,5-dicarboxyphenylaminocarbonyl) -2-phenylethylaminocarbonyl)-8-(1-adamantanemethylaminocarbonyl) -2,3,5,6-dibenzobicyclo[2.2.2]octane], the Ki on CCKA is 2510 nM; at CCKB receptor, 10 nM. Moreover, at gastrin, the Kb is 126 nM.
Regarding `O=C(O)c1cc(NC(=O)[C@H](Cc2ccccc2)NC(=O)C2C3c4ccccc4C(c4ccccc43)C2C(=O)NCc2cccc3ccccc23)cc(C(=O)O)c1` (single isomer, unassigned) [Example 32, cis-7-(1S-(3,5-dicarboxyphenylaminocarbonyl)-2-phenylethylaminocarbonyl)-8-(1-naphthalenemethylaminocarbonyl) -2,3,5,6-dibenzobicyclo [2.2.2]octane], the Ki was 501 nM on CCKA and 10 nM at CCKB receptor. Moreover, the Kb on gastrin was 25.1 nM.

The values are drawn from patent EP0719251B1, “BICYCLO (2.2.2) OCTANE DERIVATIVES CHOLECYSTOKININ AND/OR GASTRIN ANTAGONISTS” (JAMES BLACK FOUNDATION LIMITED, priority 1993, dated 1995).
